These results are taken from patent publication EP1582583A2 (priority 2000, dated 2001).

Assay [1] concerns the target T1, E. indica glypS EPSPS (Eleusine indica, UniProt Q95AK0).
T1 sequence (Q95AK0 1-445): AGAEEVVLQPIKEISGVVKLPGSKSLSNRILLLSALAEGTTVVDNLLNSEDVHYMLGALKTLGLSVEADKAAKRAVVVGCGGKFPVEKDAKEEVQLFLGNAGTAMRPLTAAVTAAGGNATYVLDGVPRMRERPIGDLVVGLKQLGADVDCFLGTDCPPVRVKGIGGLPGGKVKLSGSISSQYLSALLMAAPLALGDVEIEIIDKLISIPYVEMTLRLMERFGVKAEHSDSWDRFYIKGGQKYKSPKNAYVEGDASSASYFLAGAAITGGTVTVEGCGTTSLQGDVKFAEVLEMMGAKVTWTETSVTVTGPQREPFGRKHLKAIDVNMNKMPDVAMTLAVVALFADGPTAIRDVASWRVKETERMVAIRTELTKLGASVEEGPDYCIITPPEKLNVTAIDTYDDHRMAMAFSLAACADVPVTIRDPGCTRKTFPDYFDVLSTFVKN
Description: enzyme kinetics, Km(PEP) and Ki (glyphosate). The class given is biochemical. To be noted: apparent Km, saturating S3P.
Description: Calculations, graphical representation, and statistical analysis of enzyme kinetic data are performed using GraFit version 3.0 software (Erithacus Software Ltd., Staines, U.K.).

The test system of assay [2] is E. coli SR481 cells transformed with pMON45364 (Ei.EPSPS:glypR). Description: growth rates of transgenic E. coli on glyphosate containing media. To be noted: growth (O.D.595) in minimal M9 media with 0.0, 0.5, 1.5 or 5.0 mM glyphosate; cells expressing EPSPS of tolerant biotype (pMON45364) versus sensitive biotype (pMON45365); Figure 3. It is filed as cell-based. The source says: The EPSP synthase mature protein-coding regions isolated from the glyphosate tolerant and glyphosate sensitive E. indica biotypes, can be directly compared for their ability to confer tolerance to glyphosate in transgenic hosts. […] This was inserted by ligation to facilitate expression and cloning at the ATG start codon of an open reading frame.
These sequences are employed in RT-PCR reactions to generate expression cassettes suitable for cloning into pMON45337 cut with the restriction enzymes Nde1 and EcoR1. RT-PCR reactions are performed with total RNAs extracted from frozen crown samples using the RNeasy Plant Mini Kit (cat.# 74904, Qiagen Inc., Valencia, CA) per manufacturer's instructions. Oligo·dT-primed first-strand cDNAs are prepared from 5 µg samples of total RNA using the Superscript Pre-Amplification System (cat.# 18089-011, Life Technologies, Rockville, MD) per manufacturer's instructions. Two µl of first-strand cDNA are then used to generate E. indica EPSP synthase expression cassettes via polymerase chain reaction. The oligonucleotides are added in 50 µl RT-PCR reactions at a final concentration of 0.4 µM. […]

Assay [3] deals with native EPSPS from E. coli (Escherichia coli, UniProt P0A6D3). To be noted: read-out: apparent Ki for glyphosate; cited from earlier work.
Assay [4] concerns the target EPSPS activity in extracts from the glyphosate tolerant E. indica biotype (Eleusine indica, UniProt Q95AK1). To be noted: read-out: I50 (glyphosate); tolerant biotype plant extract; 0.5 mM PEP, 1 mM shikimate-3-phosphate, 25°C; Figure 4.
Description: Preparation of extracts and radiometric EPSP synthase assays are performed using methods adapted from published procedures (Padgette et al., J. Biol. Chem. 266:22364-22369 (1991). Crown regions are dissected from whole plants, pulverized under liquid nitrogen with a mortar and pestle, then stored at -80°C prior to extraction. Homogenates are prepared from 0.5 g tissue per sample in 25 ml extraction buffer (100 mM TrisCl, 10 % glycerol, 1 mM EDTA, 1 mM benzamidine, 1 mM dithiothreitol, 1 mM 4-(2-aminoethyl)-benzenesulfonyl floride HCl, 0.1 mM leupeptin, pH 7.4) at 4°C using a model PT3000 Polytron homogenizer (Brinkman Instuments Inc., Westbury, NY). Debris is removed by 0.2 µm filtration, then the resulting supernatant is concentrated and desalted using an Ultrafree-15 centrifugal filtration unit (cat.# UFV2-BGC-10, Millipore Corp., Bedford, MA). Final sample volumes are approximately 0.5 ml. Protein concentrations are determined spectrophotometrically using the Bio-Rad protein assay reagent (cat.#500-0006, Bio-Rad Laboratories, Hercules, CA). EPSPS specific activities are determined by assaying 10 µl extract at 25°C for 5- 15 min. […] Reactions are quenched with the addition of 50 µl 9:1 ethanol: 0.1 M acetic acid. […]

EPSPS activity in extracts from the glyphosate tolerant E. indica biotype, sequence (Q95AK1 entry or part of it): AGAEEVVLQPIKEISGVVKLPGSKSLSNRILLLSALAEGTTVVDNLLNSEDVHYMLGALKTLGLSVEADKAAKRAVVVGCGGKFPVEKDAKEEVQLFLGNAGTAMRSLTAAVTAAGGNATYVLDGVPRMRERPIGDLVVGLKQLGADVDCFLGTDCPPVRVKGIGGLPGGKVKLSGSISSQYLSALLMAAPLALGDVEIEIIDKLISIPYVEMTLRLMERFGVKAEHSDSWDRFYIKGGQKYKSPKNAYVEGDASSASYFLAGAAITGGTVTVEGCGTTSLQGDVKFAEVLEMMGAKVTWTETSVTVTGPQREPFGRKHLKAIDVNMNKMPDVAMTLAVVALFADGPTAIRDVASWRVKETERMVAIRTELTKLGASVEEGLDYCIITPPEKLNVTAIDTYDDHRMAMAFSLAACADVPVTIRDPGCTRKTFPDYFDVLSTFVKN
native EPSPS from E. coli, sequence (P0A6D3 whole entry): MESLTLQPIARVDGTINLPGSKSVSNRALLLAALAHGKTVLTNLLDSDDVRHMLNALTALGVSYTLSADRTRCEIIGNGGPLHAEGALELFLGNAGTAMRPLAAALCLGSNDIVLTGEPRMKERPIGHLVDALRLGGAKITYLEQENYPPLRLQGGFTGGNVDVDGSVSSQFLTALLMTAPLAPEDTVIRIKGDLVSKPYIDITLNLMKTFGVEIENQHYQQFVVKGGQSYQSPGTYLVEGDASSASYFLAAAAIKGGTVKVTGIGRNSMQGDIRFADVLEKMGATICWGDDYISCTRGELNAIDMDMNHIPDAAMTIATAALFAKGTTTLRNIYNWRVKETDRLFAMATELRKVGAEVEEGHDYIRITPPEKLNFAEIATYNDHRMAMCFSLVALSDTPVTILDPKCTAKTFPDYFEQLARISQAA

As to `C=C(OP(=O)(O)O)C(=O)O` [PEP, phosphoenolpyruvate], the KmPEP in assay [1] amounted to 5 M.
Turning to `O=C(O)CNCP(=O)(O)O` [glyphosate, N-phosphonomethylglycine], the “increase in tolerance to glyphosate” value in assay [2] is recorded as “approximately three-fold”. Moreover, the Ki in assay [3] is 0.5 µM. For the same compound, the IC50 in assay [4] was around 16 µM.
